Eight compounds from EP0103830A2, “Phenylethylemine derivatires as growth stimulators” (priority 1982, dated 1984) can be followed below.

Holding throughout (type): in vivo
Experiment [1] in a line: Feeding trial (Beispiel 2): feed intake, weight gain, feed conversion. The following applies: 0,2 ppm in feed, whole trial period (12 Tage). The text has this: Die Tiere wurden 2 Tage an die neuen Haltungsbedingungen adaptiert, wobei generell das Versuchsfutter ohne Wirkstoffzusatz verabreicht wurde. Am dritten Versuchstag wurden die Tiere randomisiert und anschließend die Versuchsgruppen so gebildet, daß sowohl die Mittelwerte als auch die Streuungen in den Körpergewichten zwischen den Gruppen gleich waren. Nach einer 5-tägigen Vorperiode wurde eine 7-tägige Hauptperiode durchgeführt, in denen Futteraufnahme, Zuwachs und Futterverwertung bestimmt wurden.
Es wurden folgende Behandlungen geprüft: • b 1) Negativkontrolle (n = 24) • b 2) 0,2 ppm (Wirkstoff Herstellungsbeispiel 1)

Experiment [2] is described as follows: Feeding trial (Beispiel 1): feed intake, weight gain, feed conversion. The note with it: 25 ppm in feed, n = 6, whole trial period (13 Tage), Ratten weiblich SPF Wistar. The text has this:
(§1) Die Tiere wurden 2 Tage an die neuen Haltungsbedingungen adaptiert, wobei generell das Versuchsfutter ohne Wirkstoffzusatz verabreicht wurde. Am dritten Versuchstag wurden die Tiere randomisiert und anschließend die Versuchsgruppen so gebildet, daß sowohl die Mittelwerte als auch die Streuungen in den Körpergewichten zwischen den Gruppen gleich waren. Nach einer 5-tägigen Vorperiode wurde eine 8-tägige Hauptperiode durchgeführt, in denen Futteraufnahme, Zuwachs und Futterverwertung bestimmt wurden.
(§2) Es wurden folgende Behandlungen geprüft: • b 1) Negativkontrolle (n = 12) • b 2) 25 ppm (Wirkstoff Herstellungsbeispiel 1) (n = 6)

Experiment [3] can be described thus: Feeding trial (Beispiel 3): feed intake, weight gain, feed conversion. The note with it: 25 ppm in feed, n = 6, whole trial period (13 Tage).
Description: as §1, §2

Experiment [4] in a line: Feeding trial (Beispiel 6): feed intake, weight gain, feed conversion. The following applies: 25 ppm in feed, n = 6, whole trial period (13 Tage).
Description: as §1
(§3) Es wurden folgende Behandlungen geprüft: • b 1) Negativkontrolle (n = 12) • b 2) 25 ppm (Wirkstoff Herstellungsbeispiel 2) (n = 6)

Experiment [5] in a line: Feeding trial (Beispiel 4): feed intake, weight gain, feed conversion. The following applies: 25 ppm in feed, n = 6, whole trial period (13 Tage).
Description: as §1, §3

A short description of experiment [6]: Feeding trial (Beispiel 5): feed intake, weight gain, feed conversion. The following applies: 25 ppm in feed, n = 6, whole trial period (13 Tage).
Description: as §1, §3

Experiment [7] can be described thus: Feeding trial in rats over 15 days (Beispiel 7), results relative to control. The following applies: 25 ppm in feed, 15 Tage, Ratten weiblich SPF-Wistar; Kontrolle = 100 %. The source says:
Vor Beginn des Fütterungsversuches wurden die Ratten zwei Tage lang an die neuen Haltungsbedingungen adaptiert, wobei generell das Versuchsfutter ohne Wirkstoffzusatz verabreicht wurde. Am dritten Versuchstag wurden die Tiere randomisiert und anschließend die Versuchsgruppen so gebildet, daß sowohl die Mittelwerte als auch die Streuungen in den Körpergewichten zwischen den Gruppen gleich waren.
Der Fütterungsversuch, in dem die Futteraufnahme, der Körpergewichtszuwachs und die Futterverwertung individuell bestimmt wurden, erstreckte sich über 15 Tage.
Als Wirkstoffe wurden dem Futter untergemischt: • 1-(3,4-Dihydroxyphenyl)-2-[1-methyl-2-(3,4-methylendioxyphenyl)ethylamino]ethanolhydrochlorid (= Verbindung I), • 2-Amino-1-(3-hydroxyphenyl)ethanolhydrochlorid (= Verbindung II), • 2-Amino-1-(3-hydroxyphenyl)propanolh^ydrogentartrat (= Verbindung III), • 1-(4-Hydroxyphenyl)-2-(1-methyl-3-phenylpropylamino)-propanolhydrochlorid (= Verbindung IV), • 2-Ethylamino-1-(3-hydroxyphenyl)ethanolhydrochlorid (= Verbindung V), • 1- (3,5-Dihydroxyphenyl) -2- (3-phenylpropylamino) propanol als Salz der 4-Aminobenzoesäure (= Verbindung VI), • 1-(3-Hydroxyphenyl)-2-(1,1-dimethyl-2-phenylethylamino)-ethanol als Salz der 4-Aminobenzoesäure (= Verbindung VII), • 5-[2-[1,1-Dimethylethyl)amino]-1-hydroxyethyl]-2-hydroxy- benzamid . HCl (= Verbindung VIII)
Ratten, weiblich, SPF-Wistar 36 Tiere/Versuch Gewicht: 90 bis 150 g Futter: Haltungsdiät für Ratten mit folgender Zusammensetzung: […]

Where a name gives a salt, the structure may show the parent alone.

Take `COc1ccc(C(O)CNC(C)(C)C)cc1` (stereo not drawn) [Herstellungsbeispiel 1, 2-t-Butylamino-1-(4-methoxyphenyl)-ethanol]: the figures for the Futterverwertung in experiment [1] (Negativkontrolle 4,88), in experiment [2] (Negativkontrolle 5,62) and in experiment [3] (Negativkontrolle 5,04) were 4,21 g/g, 4,03 g/g and 4,41 g/g, respectively. The figures for the Zuwachs in experiment [1] (Negativkontrolle 41,0), in experiment [2] (Negativkontrolle 27,9) and in experiment [3] (Negativkontrolle 37,0) were 50,5 g, 43,7 g and 42,4 g, respectively. Further, the figures for the Futteraufnahme in experiment [1] (Negativkontrolle 200), in experiment [2] (Negativkontrolle 153) and in experiment [3] (Negativkontrolle 182) were 213 g, 175 g and 187 g, respectively.
With `CC(C)(C)NCC(O)c1cc(Br)c(O)c(Br)c1` (stereo not drawn) [Herstellungsbeispiel 2], the Futterverwertung is recorded as 4,36 g/g in experiment [4] (Negativkontrolle 5,04), 4,41 g/g in experiment [5] (Negativkontrolle 4,75) and 3,96 g/g in experiment [6] (Negativkontrolle 5,62). For the same compound, the Zuwachs in experiment [4] (Negativkontrolle 37,0) was 43,2 g; in experiment [5] (Negativkontrolle 41,3) it was 45,1 g; in experiment [6] (Negativkontrolle 27,9), 43,4 g. For the same compound, the Futteraufnahme in experiment [4] (Negativkontrolle 182) is given as 183 g; in experiment [5] (Negativkontrolle 196), 199 g; in experiment [6] (Negativkontrolle 152), 171 g.
For `CC(Cc1ccc2c(c1)OCO2)NCC(O)c1ccc(O)c(O)c1` (stereo not drawn) [Verbindung I, 1-(3,4-Dihydroxyphenyl)-2-[1-methyl-2-(3,4-methylendioxyphenyl)ethylamino]ethanolhydrochlorid], in experiment [7], the Futteraufnahme amounted to 104%, the Futterverwertung is 92,9% and the Zuwachs came to 112%.
The like results for `NCC(O)c1cccc(O)c1` (stereo not drawn) [Verbindung II, 2-Amino-1-(3-hydroxyphenyl)ethanolhydrochlorid] were, in that order, 98%, 91,6% and 107%.
Consider `CC(N)C(O)c1cccc(O)c1` (stereo not drawn) [Verbindung III, 2-Amino-1-(3-hydroxyphenyl)propanolhydrogentartrat], for which, in experiment [7], the Futteraufnahme is recorded as 99%, the Futterverwertung is listed as 96,1% and the Zuwachs is reported as 103%.
With `CC(CCc1ccccc1)NC(C)C(O)c1ccc(O)cc1` (stereo not drawn) [Verbindung IV, 1-(4-Hydroxyphenyl)-2-(1-methyl-3-phenylpropylamino)-propanolhydrochlorid], in experiment [7], the Futteraufnahme is 101,7%, the Futterverwertung is given as 96,9% and the Zuwachs turned out to be 105%.
Taken in the same sequence, the figures for `CCNCC(O)c1cccc(O)c1` (stereo not drawn) [Verbindung V, 2-Ethylamino-1-(3-hydroxyphenyl)ethanolhydrochlorid] were 104%, 90,4% and 115%.
Taken in the same sequence, the figures for `CC(C)(C)NCC(O)c1ccc(O)c(C(N)=O)c1` (stereo not drawn) [Verbindung VIII, 5-[2-[(1,1-Dimethylethyl)amino]-1-hydroxyethyl]-2-hydroxy-benzamid . HC1] were 106%, 84,8% and 125,0%.
